Assay results: publication PMC7071059, “Targeting Receptor Tyrosine Kinase VEGFR-2 in Hepatocellular Cancer: Rational Design, Synthesis and Biological Evaluation of 1,2-Disubstituted Benzimidazoles” (Molecules, 2020)

Tests used:
[1] = tested on: HepG2 cell line; test: In vitro cytotoxic activity, Sulfo-Rhodamine-B (SRB) assay; format: cell-based, human; settings: Homo sapiens, HepG2, 48 h, SRB assay, 48 h; mean of three independent experiments; read-out: IC50 (μM) on HepG2 Cell Line
[2] = tested on: 786-0; test: NCI 60 one dose (10 μM) anticancer assay; format: cell-based; settings: Homo sapiens, 10 µM one dose, Renal Cancer, read-out: Growth Inhibition % 786-0
Method: (§1) Some of the synthesized compounds were selected by the NCI, Bethesda, MD, USA for evaluation of their anticancer activity. An in vitro one dose (10 μM) anticancer assay was conducted on a full NCI 60-cell line panel derived from 9 different cancer types. Table 2 presents the percent of growth inhibition of some cell lines. […] K-562 and MOLT-4 from leukemia, NCI-H522 from non-small cell lung cancer, HCT-116 from colon cancer, SK-MEL-5 and UACC-62 from melanoma, UO-31 from renal cancer, PC-3 from prostate cancer and HS 578T and T-47D from breast cancer are the most sensitive cell lines to the tested compounds. No growth inhibition was observed from the selected compounds against COLO205, HCC-2998, MALME-3M, SK-MEL-28, DU-145 and BT-549 cell lines. […] Against UO-31 from renal cancer and PC-3 from prostate cancer, it inhibited the growth of 44% and 58% of the cancer cells, respectively.

[3] = tested on: BT-549; test: NCI 60 one dose (10 μM) anticancer assay; format: cell-based; settings: Homo sapiens, 10 µM one dose, Breast Cancer, read-out: Growth Inhibition % BT-549
Method: as §1

[4] = tested on: CCRF-CEM; test: NCI 60 one dose (10 μM) anticancer assay; format: cell-based; settings: Homo sapiens, 10 µM one dose, Leukemia, read-out: Growth Inhibition % CCRF-CEM
Method: as §1

[5] = tested on: HCT-116; test: NCI 60 one dose (10 μM) anticancer assay; format: cell-based; settings: Homo sapiens, 10 µM one dose, Colon Cancer, read-out: Growth Inhibition % HCT-116
Method: as §1

[6] = tested on: HCT-15; test: NCI 60 one dose (10 μM) anticancer assay; format: cell-based; settings: Homo sapiens, 10 µM one dose, Colon Cancer, read-out: Growth Inhibition % HCT-15
Method: as §1

[7] = tested on: HL-60(TB); test: NCI 60 one dose (10 μM) anticancer assay; format: cell-based; settings: Homo sapiens, 10 µM one dose, Leukemia, read-out: Growth Inhibition % HL-60(TB)
Method: as §1

[8] = tested on: HT29; test: NCI 60 one dose (10 μM) anticancer assay; format: cell-based; settings: Homo sapiens, HT-29; 10 µM one dose; Colon Cancer; read-out: Growth Inhibition % HT29
Method: as §1

[9] = tested on: LOX IMVI; test: NCI 60 one dose (10 μM) anticancer assay; format: cell-based; settings: Homo sapiens, 10 µM one dose, Melanoma, read-out: Growth Inhibition % LOX IMVI
Method: as §1

[10] = tested on: M14; test: NCI 60 one dose (10 μM) anticancer assay; format: cell-based; settings: Homo sapiens, 10 µM one dose, Melanoma, read-out: Growth Inhibition % M14
Method: as §1

[11] = tested on: MDA-MB-231/ATTC; test: NCI 60 one dose (10 μM) anticancer assay; format: cell-based; settings: Homo sapiens, 10 µM one dose, Breast Cancer, read-out: Growth Inhibition % MDA-MB-231/ATTC
Method: as §1

[12] = tested on: MDA-MB-435; test: NCI 60 one dose (10 μM) anticancer assay; format: cell-based; settings: Homo sapiens, 10 µM one dose, Melanoma, read-out: Growth Inhibition % MDA-MB-435
Method: as §1

[13] = tested on: MDA-MB-468; test: NCI 60 one dose (10 μM) anticancer assay; format: cell-based; settings: Homo sapiens, 10 µM one dose, Breast Cancer, read-out: Growth Inhibition % MDA-MB-468
Method: as §1

[14] = tested on: NCI-H23; test: NCI 60 one dose (10 μM) anticancer assay; format: cell-based; settings: Homo sapiens, 10 µM one dose, Non-small cell lung Cancer, read-out: Growth Inhibition % NCI-H23
Method: as §1

[15] = tested on: NCI-H322M; test: NCI 60 one dose (10 μM) anticancer assay; format: cell-based; settings: Homo sapiens, 10 µM one dose, Non-small cell lung Cancer, read-out: Growth Inhibition % NCI-H322M
Method: as §1

[16] = tested on: NCI/ADR-RES; test: NCI 60 one dose (10 μM) anticancer assay; format: cell-based; settings: Homo sapiens, 10 µM one dose, Ovarian Cancer, read-out: Growth Inhibition % NCI/ADR-RES
Method: as §1

[17] = tested on: OVCAR-4; test: NCI 60 one dose (10 μM) anticancer assay; format: cell-based; settings: Homo sapiens, 10 µM one dose, Ovarian Cancer, read-out: Growth Inhibition % OVCAR-4
Method: as §1

[18] = tested on: OVCAR-8; test: NCI 60 one dose (10 μM) anticancer assay; format: cell-based; settings: Homo sapiens, 10 µM one dose, Ovarian Cancer, read-out: Growth Inhibition % OVCAR-8
Method: as §1

[19] = tested on: RXF 393; test: NCI 60 one dose (10 μM) anticancer assay; format: cell-based; settings: Homo sapiens, 10 µM one dose, Renal Cancer, read-out: Growth Inhibition % RXF 393
Method: as §1

[20] = tested on: SF-268; test: NCI 60 one dose (10 μM) anticancer assay; format: cell-based; settings: Homo sapiens, 10 µM one dose, CNS Cancer, read-out: Growth Inhibition % SF-268
Method: as §1

[21] = tested on: SK-MEL-5; test: NCI 60 one dose (10 μM) anticancer assay; format: cell-based; settings: Homo sapiens, 10 µM one dose, Melanoma, read-out: Growth Inhibition % SK-MEL-5
Method: as §1

[22] = tested on: SNB-19; test: NCI 60 one dose (10 μM) anticancer assay; format: cell-based; settings: Homo sapiens, 10 µM one dose, CNS Cancer, read-out: Growth Inhibition % SNB-19
Method: as §1

[23] = tested on: SR; test: NCI 60 one dose (10 μM) anticancer assay; format: cell-based; settings: Homo sapiens, 10 µM one dose, Leukemia, read-out: Growth Inhibition % SR
Method: as §1

[24] = tested on: SW-620; test: NCI 60 one dose (10 μM) anticancer assay; format: cell-based; settings: Homo sapiens, 10 µM one dose, Colon Cancer, read-out: Growth Inhibition % SW-620
Method: as §1

[25] = tested on: T-47D; test: NCI 60 one dose (10 μM) anticancer assay; format: cell-based; settings: Homo sapiens, T47D; 10 µM one dose; Breast Cancer; read-out: Growth Inhibition % T-47D
Method: as §1

[26] = tested on: TK-10; test: NCI 60 one dose (10 μM) anticancer assay; format: cell-based; settings: Homo sapiens, 10 µM one dose, Renal Cancer, read-out: Growth Inhibition % TK-10
Method: as §1

[27] = tested on: U251; test: NCI 60 one dose (10 μM) anticancer assay; format: cell-based; settings: Homo sapiens, U-251; 10 µM one dose; CNS Cancer; read-out: Growth Inhibition % U251
Method: as §1

[28] = tested on: UACC-62; test: NCI 60 one dose (10 μM) anticancer assay; format: cell-based; settings: Homo sapiens, 10 µM one dose, Melanoma, read-out: Growth Inhibition % UACC-62
Method: as §1

[29] = tested on: UO-31; test: NCI 60 one dose (10 μM) anticancer assay; format: cell-based; settings: Homo sapiens, 10 µM one dose, Renal Cancer, read-out: Growth Inhibition % UO-31
Method: as §1

SMILES | IC50 [1] | inhibition at 10 µM [2] | inhibition at 10 µM [3] | inhibition at 10 µM [4] | inhibition at 10 µM [5] | inhibition at 10 µM [6] | inhibition at 10 µM [7] | inhibition at 10 µM [8] | inhibition at 10 µM [9] | inhibition at 10 µM [10] | inhibition at 10 µM [11] | inhibition at 10 µM [12] | inhibition at 10 µM [13] | inhibition at 10 µM [14] | inhibition at 10 µM [15] | inhibition at 10 µM [16] | inhibition at 10 µM [18] | inhibition at 10 µM [19] | inhibition at 10 µM [20] | inhibition at 10 µM [21] | also measured
Cc1ccc(-c2nc3ccccc3n2CC(=O)N/N=C/c2ccc(OCc3ccccc3)cc2)o1 [Compound 17d, (E)-N′-(4-(Benzyloxy)benzylidene)-2-(2-(5-methylfuran-2-yl)-1H-benzo[d]imidazol-1-yl)acetohydrazide] | 15.6 µM | < 10% | < 10% | < 10% | < 10% | 25% | 19% | < 10% | 17% | < 10% | 18% | < 10% | < 10% | < 10% | 20% | < 10% | 20% | < 10% | 23% | 15% | inhibition at 10 µM [17]: < 10%; inhibition at 10 µM [22]: < 10%; inhibition at 10 µM [23]: 16%; inhibition at 10 µM [24]: < 10%; inhibition at 10 µM [25]: 31%; inhibition at 10 µM [26]: < 10%; inhibition at 10 µM [27]: < 10%; inhibition at 10 µM [28]: < 10%; inhibition at 10 µM [29]: 30%; melting point: 201 to 203 °C
Cc1ccc(-c2nc3ccccc3n2CC(=O)N/N=C/c2cccc(OCc3ccccc3)c2)o1 [Compound 17b, (E)-N′-(3-(Benzyloxy)benzylidene)-2-(2-(5-methylfuran-2-yl)-1H-benzo[d]imidazol-1-yl)acetohydrazide] | 10 µM | 26% | < 10% | 28% | 32% | 35% | 50% | 29% | 23% | 24% | 25% | 21% | 20% | 14% | 21% | 29% | 26% | 40% | 37% | 33% | inhibition at 10 µM [17]: 21%; inhibition at 10 µM [22]: 21%; inhibition at 10 µM [23]: 25%; inhibition at 10 µM [24]: 13%; inhibition at 10 µM [25]: 49%; inhibition at 10 µM [26]: 10%; inhibition at 10 µM [27]: 36%; inhibition at 10 µM [28]: 29%; inhibition at 10 µM [29]: 57%; melting point: 180 to 182 °C
CC(C)c1nc2ccccc2n1CC(=O)N/N=C/c1cccc(OCc2ccccc2)c1 [Compound 17a, (E)-N′-(3-(Benzyloxy)benzylidene)-2-(2-isopropyl-1H-benzo[d]imidazol-1-yl)acetohydrazide] | 1.98 µM | 24% | 28% | 41% | 66% | < 10% | 32% | < 10% | < 10% | 16% | 25% | < 10% | 47% | 39% | < 10% | < 10% | < 10% | < 10% | < 10% | 50% | inhibition at 10 µM [17]: < 10%; inhibition at 10 µM [22]: 22%; inhibition at 10 µM [23]: 64%; inhibition at 10 µM [24]: < 10%; inhibition at 10 µM [25]: 32%; inhibition at 10 µM [26]: < 10%; inhibition at 10 µM [27]: < 10%; inhibition at 10 µM [28]: 41%; inhibition at 10 µM [29]: 44%
C/C(=N\NC(=O)Cn1c(C(C)C)nc2ccccc21)c1ccccc1 [Compound 14a, (E)-2-(2-Isopropyl-1H-benzo[d]imidazol-1-yl)-N′-(1-phenylethylidene)acetohydrazide] | 25.9 µM | < 10% | < 10% | 16% | < 10% | < 10% | < 10% | < 10% | < 10% | < 10% | < 10% | < 10% | 29% | < 10% | < 10% | < 10% | < 10% | 33% | < 10% | < 10% | inhibition at 10 µM [17]: < 10%; inhibition at 10 µM [22]: < 10%; inhibition at 10 µM [24]: 18%; inhibition at 10 µM [25]: < 10%; inhibition at 10 µM [26]: < 10%; inhibition at 10 µM [27]: < 10%; inhibition at 10 µM [28]: 13%; inhibition at 10 µM [29]: < 10%; melting point: 176 to 178 °C
CC(C)c1nc2ccccc2n1CC(=O)N/N=C/c1ccc(OCc2ccccc2)cc1 [Compound 17c, (E)-N′-(4-(Benzyloxy)benzylidene)-2-(2-isopropyl-1H-benzo[d]imidazol-1-yl)acetohydrazide] | 20.2 µM | < 10% | < 10% | < 10% | 18% | < 10% | < 10% | < 10% | < 10% | < 10% | < 10% | < 10% | < 10% | < 10% | < 10% | < 10% | < 10% | < 10% | < 10% | < 10% | inhibition at 10 µM [22]: < 10%; inhibition at 10 µM [23]: < 10%; inhibition at 10 µM [24]: < 10%; inhibition at 10 µM [25]: 24%; inhibition at 10 µM [26]: < 10%; inhibition at 10 µM [27]: < 10%; inhibition at 10 µM [28]: 26%; inhibition at 10 µM [29]: 28%; melting point: 209 to 211 °C
